Structures can show the parent of a compound that is named as a salt.
Experiment: in vitro
Settings: rat, gh3-tre-luc cells, AC50 (uM) modified / 1000
With `Oc1ccc2ccc3cccc4ccc1c2c34` [1-Hydroxypyrene] the CC50 at 24 h was greater than 90 µM.
In the case of `CC(=O)OC(C)C` [Isopropyl acetate], the CC50 at 24 h is reported as greater than 90 µM.
`CCCCC(CC)COC(=O)c1ccccc1C(=O)O` (centres unmarked) [MEHP] showed a CC50 at 24 h greater than 90 µM.
For `O=c1oc2ccccc2c(O)c1C1CCCc2ccccc21` (centres unmarked) [Coumatetralyl], the CC50 at 24 h was greater than 90 µM.
Molecule `CC(=O)Nc1ccc(OCCOCCOc2ccc(NC(C)=O)cc2)cc1` [Diamfenetide] has a CC50 at 24 h greater than 50 µM.
Molecule `COC(=O)c1ccc(C(=O)OC)c(C(=O)OC)c1` [Trimethyl benzene-1,2,4-tricarboxylate] has a CC50 at 24 h greater than 90 µM.
Molecule `Cc1c(N=C=O)cccc1N=C=O` [Toluene-2,6-diisocyanate] has a CC50 at 24 h greater than 90 µM.
Work on `COc1cc(CC(C)N)c(OC)cc1Br` (centres unmarked) [4-Bromo-2,5-dimethoxyamphetamine hydrochloride] yielded a CC50 at 24 h of 40.8 µM.
`CC(C)c1nc(N(C)S(C)(=O)=O)nc(-c2ccc(F)cc2)c1/C=C/[C@@H](O)C[C@@H](O)CC(=O)O` [Rosuvastatin calcium] showed a CC50 at 24 h greater than 50 µM.
`Cc1ccccc1C` [o-Xylene] showed a CC50 at 24 h greater than 90 µM.
For `Cn1cnc([N+](=O)[O-])c1Sc1ncnc2nc[nH]c12` [Azathioprine], the CC50 at 24 h was greater than 50 µM.
`COCC(C)OCC(C)O` (centres unmarked) [Dipropylene glycol monomethyl ether] gave a CC50 at 24 h greater than 90 µM.
`C1CC(COCC2CO2)CCC1COCC1CO1` (centres unmarked) [2,2'-[Cyclohexane-1,4-diylbis(methanediyloxymethanediyl)]dioxirane] gave a CC50 at 24 h of 59.2 µM.
Work on `O=C(O)COc1ccccc1/C=N/NC(=O)c1ccncc1` [Aconiazide] yielded a CC50 at 24 h greater than 50 µM.
`COc1ccccc1N1CCN(CCCNc2cc(=O)n(C)c(=O)n2C)CC1` [Urapidil] showed a CC50 at 24 h greater than 50 µM.
`CC(C)(C(=O)c1cccnc1)c1cccnc1` [Metyrapone] gave a CC50 at 24 h greater than 20 µM.
`O=S1(=O)CCCC1` [Sulfolane] showed a CC50 at 24 h greater than 90 µM.
`c1cnc(N2CCN(Cc3ccc4c(c3)OCO4)CC2)nc1` [Piribedil] gave a CC50 at 24 h greater than 50 µM.
In the case of `CN(C)CCC=C1c2ccccc2C(C)(C)c2ccccc21` [Melitracen hydrochloride], the CC50 at 24 h is reported as 19.6 µM.
Molecule `NS(=O)(=O)c1cc2c(cc1C(F)(F)F)NCNS2(=O)=O` [Hydroflumethiazide] has a CC50 at 24 h greater than 20 µM.
Molecule `CC(C)(C)c1ccc(OCC2CO2)cc1` (centres unmarked) [tert-Butyl phenyl glycidyl ether] has a CC50 at 24 h greater than 90 µM.
With `C=C(C)C(=O)OCCOC(=O)C(=C)C` [Ethylene glycol dimethacrylate] the CC50 at 24 h was greater than 90 µM.
`CCC1CO1` (centres unmarked) [1,2-Epoxybutane] showed a CC50 at 24 h greater than 90 µM.
`O=[N+]([O-])O[C@@H]1CO[C@H]2[C@@H]1OC[C@@H]2O` [Isosorbide 5-mononitrate] showed a CC50 at 24 h greater than 50 µM.
With `Cc1ccc(C(C)C)cc1O` [Isopropyl-o-cresol] the CC50 at 24 h was greater than 90 µM.
For `CCCCC(CC)COC(=O)COc1cc(Cl)c(Cl)cc1Cl` (centres unmarked) [2,4,5-T 2-Ethylhexyl], the CC50 at 24 h was greater than 90 µM.
Work on `CCc1ccc(C(c2ccc(CC)cc2)C(Cl)Cl)cc1` [p,p'-Ethyl-DDD] yielded a CC50 at 24 h of 82.4 µM.
In the case of `NC(=O)CC[C@@H]1NC(=O)[C@H](Cc2ccccc2)NC(=O)[C@H](Cc2ccc(O)cc2)NC(=O)CCSSC[C@@H](C(=O)N2CCC[C@H]2C(=O)N[C@H](CCCN=C(N)N)C(=O)NCC(N)=O)NC(=O)[C@H](CC(N)=O)NC1=O` [Desmopressin], the CC50 at 24 h is reported as greater than 50 µM.
With `C1=Cc2ccccc2C1` [Indene] the CC50 at 24 h was greater than 90 µM.
With `CO[C@H]1C[C@H](O[C@H]2[C@H](C)[C@@H](O[C@@H]3O[C@H](C)C[C@H](N(C)C)[C@H]3OC(C)=O)[C@@H](C)C[C@@]3(CO3)C(=O)[C@H](C)[C@@H](OC(C)=O)[C@@H](C)[C@@H](C)OC(=O)[C@@H]2C)O[C@@H](C)[C@@H]1OC(C)=O` [Troleandomycin] the CC50 at 24 h was greater than 20 µM.
Molecule `CCN(CC)CCOC(=O)[C@H](Cc1cccc2ccccc12)C[C@H]1CCCO1` [Nafronyl oxalate] has a CC50 at 24 h greater than 20 µM.
`CC(C)(C)CCCCCC(=O)O` [Neodecanoic acid] gave a CC50 at 24 h greater than 90 µM.
With `O=C(CCCN1CCC(C(=O)c2ccc(F)cc2)CC1)c1ccc(F)cc1` [Lenperone] the CC50 at 24 h was greater than 50 µM.
`CCCCCCCCO` [1-Octanol] gave a CC50 at 24 h greater than 90 µM.
Work on `O=C(C(Cl)(Cl)Cl)C(Cl)(Cl)Cl` [Hexachloroacetone] yielded a CC50 at 24 h greater than 90 µM.
For `Nc1cc(Cl)c([N+](=O)[O-])cc1O` [2-Amino-4-chloro-5-nitrophenol], the CC50 at 24 h was 36.9 µM.
Molecule `CCOc1ccc(NC(=O)CC(C)=O)cc1` [N-(4-Ethoxyphenyl)-3-oxobutanamide] has a CC50 at 24 h greater than 90 µM.
In the case of `CSc1nc(NC(C)C)nc(NC(C)C)n1` [Prometryn], the CC50 at 24 h is reported as greater than 90 µM.
For `CC[C@H](C)[C@H](N)C(=O)O` (racemic) [DL-Isoleucine], the CC50 at 24 h was greater than 50 µM.
In the case of `Cc1cccc(Nc2ccccc2)c1` [3-Methyl-N-phenylaniline], the CC50 at 24 h is reported as greater than 90 µM.
With `Cn1c(=O)c2c(ncn2CCOC(=O)C(C)(C)Oc2ccc(Cl)cc2)n(C)c1=O` [Etofylline clofibrate] the CC50 at 24 h was greater than 50 µM.
Work on `CCN(CC)CCO` [N,N-Diethylethanolamine] yielded a CC50 at 24 h greater than 100 µM.
In the case of `C1CCCC1` [Cyclopentane], the CC50 at 24 h is reported as greater than 90 µM.
Work on `CC(=O)OCC(=O)[C@@]12OC(C)(C)O[C@@H]1C[C@H]1[C@@H]3C[C@H](F)C4=CC(=O)C=C[C@]4(C)[C@@]3(F)[C@@H](O)C[C@@]12C` [Fluocinonide] yielded a CC50 at 24 h greater than 20 µM.
`CC/C=C\CCO` [(Z)-3-Hexen-1-ol] gave a CC50 at 24 h greater than 90 µM.
`O=C(O)c1nc(Cl)ccc1Cl` [Clopyralid] gave a CC50 at 24 h greater than 90 µM.
Work on `CCN(CC)c1ccc(N=Nc2ccc(S(=O)(=O)N(C)C)cc2)c(S(=O)(=O)NCC[n+]2ccccc2)c1` [1-[2-({[5-Diethylamino)-2-{[4-(dimethylsulfamoyl)phenyl]diazenyl}phenyl]sulfonyl}amino)ethyl]pyridinium chloride] yielded a CC50 at 24 h greater than 50 µM.
Molecule `BrCc1ccc(Br)cc1` [4-Bromobenzyl bromide] has a CC50 at 24 h greater than 90 µM.
In the case of `CCCCOC(=O)CC` [Butyl propionate], the CC50 at 24 h is reported as greater than 90 µM.
`CCCCCCC1(C)CCC(=O)O1` (centres unmarked) [Dihydrojasmone lactone] gave a CC50 at 24 h greater than 90 µM.
For `COc1ccccc1NC(=O)c1cc2ccccc2cc1O` [3-Hydroxy-2-naphthoic o-anisidide], the CC50 at 24 h was greater than 90 µM.
Molecule `CC=C1CC2C=CC1C2` (centres unmarked) [5-Ethylidene-2-norbornene] has a CC50 at 24 h greater than 90 µM.
For `CC1=C(C(=O)Nc2ccccc2)SCCO1` [Carboxin], the CC50 at 24 h was greater than 90 µM.
`CNC(=O)NC` [N,N'-Dimethylurea] showed a CC50 at 24 h greater than 90 µM.
In the case of `C=C(C)C(=O)OCCOCCOCCOCCOC(=O)C(=C)C` [Tetraethyleneglycol dimethacrylate], the CC50 at 24 h is reported as greater than 90 µM.
Work on `CC(=O)Nc1ccccc1O` [2-Acetamidophenol] yielded a CC50 at 24 h greater than 90 µM.
`O=C(Oc1ccccc1)c1ccc(O)cc1` [Phenylparaben] gave a CC50 at 24 h greater than 90 µM.
With `CCCCN(CCCC)C(=S)SSC(=S)N(CCCC)CCCC` [Tetrabutylthiuram disulfide] the CC50 at 24 h was greater than 90 µM.

Same assay, conditions: rat, gh3-tre-luc cells, AC50 (uM) modified / 1000, Tox21_110001=Tox21_112027; viability, 1 nM T3 present, 24 h
Work on `COc1ccc2c3c1O[C@H]1[C@@H](O)C=C[C@H]4[C@@H](C2)NCC[C@@]341` [Norcodeine] yielded a CC50 at 24 h greater than 50 µM.

Same assay, conditions: rat, gh3-tre-luc cells, AC50 (uM) modified / 1000, Tox21_110001=Tox21_200152; viability, 1 nM T3 present, 24 h
With `CCOC(=O)CBr` [Ethyl bromoacetate] the CC50 at 24 h was greater than 90 µM.

Same assay, conditions: rat, gh3-tre-luc cells, AC50 (uM) modified / 1000, Tox21_110001=Tox21_200571; viability, 1 nM T3 present, 24 h
`BrC(Br)C(Br)(Br)Br` [Pentabromoethane] gave a CC50 at 24 h of 24.2 µM.

Same assay, conditions: rat, gh3-tre-luc cells, AC50 (uM) modified / 1000, Tox21_110001=Tox21_200981; viability, 1 nM T3 present, 24 h
For `Clc1ccc2ccccc2c1` [2-Chloronaphthalene], the CC50 at 24 h was greater than 90 µM.

Same assay, conditions: rat, gh3-tre-luc cells, AC50 (uM) modified / 1000, Tox21_110001=Tox21_201178; viability, 1 nM T3 present, 24 h
`CC(Cl)(Cl)[N+](=O)[O-]` [1,1-Dichloro-1-nitroethane] showed a CC50 at 24 h greater than 90 µM.

Same assay, conditions: rat, gh3-tre-luc cells, AC50 (uM) modified / 1000, Tox21_110001=Tox21_202019; viability, 1 nM T3 present, 24 h
Work on `CCOC(=O)c1ccccc1N` [Ethyl anthranilate] yielded a CC50 at 24 h greater than 90 µM.

Same assay, conditions: rat, gh3-tre-luc cells, AC50 (uM) modified / 1000, Tox21_110001=Tox21_300698; viability, 1 nM T3 present, 24 h
Molecule `CCOC(=O)COc1cc(-c2nn(C)c(OC(F)F)c2Cl)c(F)cc1Cl` [Pyraflufen-ethyl] has a CC50 at 24 h greater than 90 µM.

From article PMC6792352, “Limited Chemical Structural Diversity Found to Modulate Thyroid Hormone Receptor in the Tox21 Chemical Library” (Environmental Health Perspectives, 2019)
